ChEMBL document CHEMBL6115002, “Discovery of novel sitolactone derivative leading to PANoptosis and differentiation of acute myeloid leukemia cells” (Eur J Med Chem, 2025)

Key:
[1] = Induction of cell cycle arrest in mouse WEHI-3 cells assessed as increase in accumulation of cells at G1 phase at 1 uM incubated for 24 hrs by propidium iodide staining based flow cytometric analysis (reference value: 46.93%); format: functional
NCI-H23 = experiment: Antiproliferative activity against human NCI-H23 cells assessed as inhibition of cell proliferation incubated for 72 hrs by CCK-8 assay; format: functional, cell-based; conditions: NCI-H23, 72 h

## C=C1C[C@@H]2[C@@H](CC[C@]3(C)[C@@H](O[Si](C(C)C)(C(C)C)C(C)C)CC[C@@H]23)OC1=O
[1]
  Activity: 64.54%
NCI-H23
  IC50: 4 µM
